We go through 4 compounds from patent publication US20260158026A1, “METHODS OF TREATING CANCER AND COMPOSITIONS FOR THE SAME” (MARSAL THERAPEUTICS, INC., priority 2022, published 2026).

Where two headings read alike, the source gives them in different places.

In one series the test system is Glioma cells. Kind of series: Cytotoxicity and apoptosis assays (ApoTox-Glo). The class given is cell-based, human.
The conditions of series [1]: previous clinical trials; cited from earlier work.
In series [2] the test system is Patient-derived GBM cells. Nature of the series: Long-term exposure assay. The class given is cell-based, human. The following applies: 0.1 μM, incubated for 21 days, FIG. 3A. As to the method: Long-term Exposure Assay: Measurements for long-term assays were performed on days 4, 8, 14, and 21. 3,000 cells/well were plated in a 384 well plate (for day 4 assay), a 96 well plate (for day 8 assay), a 24 well plate (for day 14 assay), a 6 well plate (for day 21 assay), or a 10 cm plate (for day 30 assay) and allowed to adhere as above. Following this, media was exchanged to DMEM (without FBS+1× Penstrep) with either DMSO as control treatment or compound (at final concentration of 0.1 μM or 5 μM). Every four days, media was replaced with fresh DMEM (without FBS+1×Penstrep) comprising DMSO (control) or compound. At the end of days 4, 8, 14, and 21 cell viability assays were performed.
Patient-derived GBM cells were treated with Compound 1 at concentrations of 5 μM or 0.1 μM and incubated for 21 days. Fibroblasts were used as a control (FIG. 3B).

Series [3] concerns glioma cells from patient 1. Nature of the series: Immunostaining with Caspase 3 antibody (apoptosis marker). Type of series: cell-based, human. The note with it: compared to positive control staurosporin, FIGS. 4C and 4D.
Series [4] deals with GBM cancer cell line xenograft. Nature of the series: GBM xenograft stereotactically implanted into the brain of nude mice. The class given is in vivo. The following applies: oral administration, versus mice not treated. The text has this:
A GBM cancer cell line was xenografted into 8-week old male nude mice and the tumor was allowed to develop for four weeks. The GBM cells were stereotactically implanted into the brain and allowed to grow for four weeks. After four weeks, treatment with Compound 1 via oral administration was started (Day 1). The mice were allowed to live until the ethical endpoint of the study was reached. Body weight and activity of animals were monitored continuously.

In series [5] the test system is GBM cells. Nature of the series: Mitochondrial membrane potential (JC1 staining). The class given is cell-based, human. The note with it: CCCP positive control, DMSO negative control; 24, 48, 72 hrs, FIGS. 5A and 5B. The procedure: FIG. 5B is a bar graph of JC1 staining for mitochondrial depolarization in GMB cells treated with DMSO (negative control), CCCP (positive control), or Compound 1 (CMPD1) at 24 hrs, 48 hrs, and 72 hrs according to Example 6.
GBM cells were treated with Compound 1, carbonyl cyanide m-chlorophenyl hydrazine (CCCP; positive control), or DMSO (negative control) and the mitochondrial membrane potential (indicative of functional status of the GBM cells) was measured and analyzed.

The test system of series [6] is Pancreatic Cancer (MIA-PACA). Kind of series: IC50 measurement, cell viability assay. The following applies: Homo sapiens, MIA PaCa-2, 96 h, after 4 days of treatment. Type of series: cell-based. As to the method: (§1) Negative (100% DMSO) and positive (10 mM Staurosporine in DMSO) controls were placed in columns 10 and 11, respectively. The plate was diluted with 180 μL growth media/well and 5 μL of the resulting compound solution was transferred in quadruplicate to the assay plate. For the assay plate, 3,000 cells/well were plated in a 384 well clear bottom μL plate and allowed to adhere for at least 3 hours. […] The plates were incubated for 1, 2, 3, or 4 days. ATP levels were measured after incubation. Based on the results of Example 1, Compound 1 was selected for further evaluation.

A further series concerns Lung Cancer (H1299). Kind of series: IC50 measurement, cell viability assay. The following applies: Homo sapiens, NCI-H1299, 96 h, after 4 days of treatment. Type of series: cell-based. As to the method: as §1
In a further series the test system is Patient 1 GBM cells. Kind of series: IC50 measurement, cell viability assay. Type of series: cell-based. The note with it: Homo sapiens. The procedure:
as §1

The subject of another series is Colon Cancer (HT-29). Kind of series: IC50 measurement, cell viability assay. Type of series: cell-based. The following applies: Homo sapiens, HT-29, 96 h, after 4 days of treatment. As to the method: as §1
Series [7] deals with Breast Cancer (MDA-MB-231). Kind of series: IC50 measurement, cell viability assay. Type of series: cell-based. The note with it: Homo sapiens, MDA-MB-231, 96 h, after 4 days of treatment. The procedure:
as §1

The subject of another series is fibroblast control. Nature of the series: Immunostaining and quantification of Annexin V positive cells. Type of series: cell-based, human.
In a further series the test system is fibroblasts. Kind of series: Long-term exposure assay. The class given is cell-based, human. The note with it: 0.1 μM, 21 days, FIG. 3B.
For series [8], the system named is identified hits (BMPR1A, UTP23, ARHGAP33, ITSN1). Kind of series: Pull-down assay using biotin labeled Compound 1. The class given is binding, human. The following applies: pull-down with biotin labeled Compound 1, FIG. 8B. As to the method:
(§2) With reference to Step I in FIGS. 7A and 7B, whole genome CRISPR-Cas9 studies (B. Schmierer, Mol Systems Biol., 13, 945 (2017)) were carried out to identify potential targets that could explain the effect produced by Compound 1 on cancer cells. […] With reference to Step II in FIG. 7A and FIGS. 8A and 8B, after the CRISPR screening analysis was complete, the expression of identified hits were confirmed in GB cells as shown in FIG. 8A. The binding of Compound 1 to the identified hits was established via a pull-down assay using biotin labeled Compound 1 (FIG. 8B).

Series [9] has as its system fibroblast cells from patient 1. Nature of the series: IC50 measurement, cell viability assay. Type of series: cell-based. The following applies: Homo sapiens. The procedure: (§3) Negative (100% DMSO) and positive (10 mM Staurosporine in DMSO) controls were placed in columns 10 and 11, respectively. The plate was diluted with 180 μL growth media/well and 5 μL of the resulting compound solution was transferred in quadruplicate to the assay plate. For the assay plate, 3,000 cells/well were plated in a 384 well clear bottom μL plate and allowed to adhere for at least 3 hours. […] The plates were incubated for 1, 2, 3, or 4 days. ATP levels were measured after incubation.

Series [10] relates to GBM cells isolated from an additional five patients. Kind of series: IC50 measurement, cell viability assay. The class given is cell-based. The following applies: Homo sapiens, FIG. 2. The procedure: as §3
Serial dilutions in FIG. 2 show the effect of Compound 1 on GBM cells isolated from an additional five patients.

Series [11] has as its system glioma cells from patient 1. Kind of series: Immunostaining and quantification of Annexin V positive cells. The class given is cell-based, human.
The test system of series [12] is GBM cells. Nature of the series: Mitochondria vacuolization by Transmission Electron Microscopy. Type of series: cell-based, human. The note with it: 2.5 μM, 5 μM, or 10 μM; 3, 6, 12, 24, and 48 hours. The procedure: Referring to FIGS. 6A and 6B, the GBM cells were analyzed via Transmission Electron (TEM) Microscopy after 3, 6, 12, 24, and 48 hours of incubation.

For series [13], the system named is patient-derived glioma cells. Nature of the series: siRNA knockdown of CRISPR-Cas9 hits followed by IC50 measurement. The class given is cell-based, human. The procedure: FIG. 7C is a graph of cell viability after treatment with Compound 1 for certain targets identified in FIG. 7B in patient-derived glioma cells followed by measurement of IC50 post-treatment with serial dilution of Compound 1 according to Example 8.
as §2

Series [14] deals with GBM cells. Nature of the series: Combination with FDA approved oncology drugs, cell viability. Type of series: cell-based, human. The note with it: combination with Compound 1, FIGS. 12A-C. The source says: The FDA approved oncology drugs included temozolomide (TMZ), ixabepilone, cladribine, enzalutamide, omacetaxine mepesuccinate, epothilones, erubulin, and latrunculin.

As a reminder, the IC50 is the concentration at which inhibition is half-maximal. Take `Fc1ccc(C(OCCN2CCN(CCCc3ccccc3)CC2)c2ccc(F)cc2)cc1` [Compound 1, vanoxerine]: in the series on Glioma cells, the “Apoptosis (ApoTox-Glo)” value was “apoptosis was not initiated”. For the same compound, the “Cytotoxicity (ApoTox-Glo)” value with Glioma cells was “immense cytotoxicity”. The “Safety when administered to humans” value in series [1] is “establishing its safety”. The “Effect on GBM cells, long-term exposure” value in [2] is “eliminated the GBM cells”. Further, the “Apoptosis positive cells, Caspase 3 immunostaining” value in series [3] is “did not produce apoptosis positive cells”. In addition, the Physical activity entry in series [4] is “increased physical activity”. Also, the Tumor size result in [4] (FIG. 9) is on record as “reduction in tumor size”. For the same compound, the Bodyweight result in [4] (FIG. 10) was “reduced loss in bodyweight”. For the same compound, in [4] (FIG. 11), the Life span result is recorded as “increased life span”. The Mitochondrial membrane potential result in the series on GBM cells [5] was “depolarization of mitochondria in a manner similar to CCCP”. Moreover, the IC50 in series [6] is 2.4 µM; in the series on Lung Cancer (H1299), 2.1 µM; in the series on Patient 1 GBM cells (96 h, after 4 days of treatment, cell viability assay, read-out: Mean IC50, Brain Cancer (Patient 1 GBM cells)), 2.2 µM; in the series with Patient 1 GBM cells (Glioma cell, 96 h, serial dilution, 4 days of incubation, FIG. 1B, read-out: IC50 for glioma cells from patient 1) it was 4.9 µM; in the series on Patient 1 GBM cells (various cell passages, FIG. 1C, range printed from about 300 nM to about 6.4 μM, read-out: IC50 for GBM cells, lower end of range over cell passages), ~0.3 µM; in the series on Patient 1 GBM cells (various cell passages, FIG. 1C, range printed from about 300 nM to about 6.4 μM, read-out: IC50 for GBM cells, upper end of range over cell passages), ~6.4 µM. In addition, the concentration for half-maximal inhibition (IC50) was 2.4 µM in the series with Colon Cancer (HT-29); 2.3 µM in series [7]; 13.8 µM in [9] (96 h, serial dilution, 4 days of incubation, FIG. 1B, read-out: IC50 for fibroblast cells from patient 1); 16 to 41 µM in series [9] (various cell passages, FIG. 1D, read-out: IC50 for the fibroblasts, range over cell passages); 4.72 µM in [10]. Further, the “Apoptosis positive cells, Annexin V” value (in the series on fibroblast control; in series [11]) was “do not produce more apoptosis positive cells” throughout. In the series on fibroblasts, the “Cytotoxicity towards fibroblasts, long-term exposure” value was “without exhibiting cytotoxicity”. Further, in series [8], the “Binding to the identified hits” value was “established”. Also, in the series on GBM cells [12], the “Vacuolization of mitochondria (TEM)” value is on record as “induced vacuolization of mitochondria”. Moreover, the “IC50 after knockdown of ARHGAP33 versus controls” value in series [13] (siRNA knockdown of ARHGAP33, FIG. 7C) was “higher IC50 values”. Also, the “IC50 after knockdown of BMPR1A versus controls” value in series [13] (siRNA knockdown of BMPR1A, FIG. 7C) is reported as “higher IC50 values”. The “IC50 after knockdown of ITSN1 versus controls” value in [13] (siRNA knockdown of ITSN1, FIG. 7C) is “higher IC50 values”.
With `Nc1nc(Cl)nc2c1ncn2[C@H]1C[C@H](O)[C@@H](CO)O1` [cladribine], in the series on GBM cells [14], the “Cell viability, Compound 1 in the additional presence of the named drug” value (shortened to “Cell viability”) is given as “statistically significant decreases in cell viability”.
Turning to `CNC(=O)c1ccc(N2C(=S)N(c3ccc(C#N)c(C(F)(F)F)c3)C(=O)C2(C)C)cc1F` [enzalutamide], the “Cell viability” value with GBM cells [14] is recorded as “statistically significant decreases in cell viability”.
For the compound `C/C(=C\c1csc(C)n1)[C@@H]1C[C@@H]2O[C@]2(C)CCC[C@H](C)[C@H](O)[C@@H](C)C(=O)C(C)(C)[C@@H](O)CC(=O)N1` [ixabepilone], the “Cell viability” value in the series on GBM cells [14] is on record as “statistically significant decreases in cell viability”.
